Experimental data published in PubChem BioAssay (NCI).
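Protocol summary: plate cells (96-well), add compound at 5 concentrations, incubate 48 h, interpolate endpoints linearly. GI50 marks 50% less growth. TGI marks complete inhibition of growth.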

Legend:
Assay in all cases: growth of human tumour cells (NCI), 48 h
M14 melanoma = tested on: M14 melanoma
K-562 leukemia = tested on: K-562 leukemia
NCI-H460 lung = tested on: NCI-H460 lung
SF-268 CNS = tested on: SF-268 CNS
SK-MEL-5 melanoma = tested on: SK-MEL-5 melanoma
HL-60(TB) leukemia = tested on: HL-60(TB) leukemia
KM12 colon = tested on: KM12 colon
UACC-62 melanoma = tested on: UACC-62 melanoma
MALME-3M melanoma = tested on: MALME-3M melanoma
HCC-2998 colon = tested on: HCC-2998 colon

Compound | TGI (M14 melanoma) | TGI (K-562 leukemia) | TGI (NCI-H460 lung) | TGI (SF-268 CNS) | TGI (SK-MEL-5 melanoma) | TGI (HL-60(TB) leukemia) | TGI (KM12 colon) | TGI (UACC-62 melanoma) | TGI (MALME-3M melanoma) | GI50 (M14 melanoma) | GI50 (NCI-H460 lung) | GI50 (SF-268 CNS) | GI50 (UACC-62 melanoma) | GI50 (MALME-3M melanoma) | GI50 (HCC-2998 colon) | TGI (HCC-2998 colon) | GI50 (SK-MEL-5 melanoma) | GI50 (HL-60(TB) leukemia) | GI50 (KM12 colon) | GI50 (K-562 leukemia)
[O-][n+]1c2cccc(O)c2[n+]([O-])c2cccc(O)c21 | > 100 µM | > 100 µM | > 100 µM | > 100 µM | > 100 µM | > 100 µM | > 100 µM |  |  |  |  |  |  |  |  |  |  |  |  | 
CN1CCCc2nc3ccccc3n2C1 | > 100 µM | > 100 µM | > 100 µM | > 100 µM | > 100 µM | > 100 µM | > 100 µM | > 100 µM | > 100 µM |  |  |  |  |  |  |  |  |  |  | 
C[C@]12CCc3nc(Nc4ccc(O)cc4)sc3C1=CC[C@@H]1[C@@H]2CC[C@]2(C)/C(=N/NC(N)=S)CC[C@@H]12 | 2.9 µM |  | 1.94 µM | 3.98 µM | 3.14 µM | 5.07 µM | 2.74 µM | 2.89 µM | 2.38 µM | 1.18 µM | 0.525 µM | 1.34 µM | 1.43 µM | 1.12 µM | 1.89 µM | 4.3 µM | 1.66 µM | 1.88 µM | 1.26 µM | 
CC(C)(C)O/N=C/c1cc(NC(=S)c2ccccc2)ccc1Cl | 54.1 µM |  | 24.3 µM | 58.5 µM | 41.5 µM | 42.6 µM | 25.7 µM | 32.7 µM | 40.6 µM |  |  |  |  |  |  | 24.2 µM |  |  |  | 
O=C(Nc1ccccc1C(=O)NC(=O)c1ccccc1NC(=O)c1ccccc1)c1ccccc1 |  | 18.3 µM | 28.1 µM | 22.2 µM | 12.2 µM |  | 3.17 µM | 5.54 µM | 12.1 µM |  |  |  |  |  |  |  |  |  |  | 
Oc1cn(-c2ccc(Cl)cc2)nc1-c1n[nH]c(=S)n1-c1ccc(F)cc1 | 45 µM | > 100 µM | 40.8 µM | 70.8 µM | 35.9 µM |  | > 100 µM | 28 µM | > 100 µM | 15.1 µM | 11.9 µM | 14.7 µM | 12 µM | 25.9 µM |  |  | 14.3 µM |  | 13 µM | 12.6 µM
O=c1[nH]c(=S)[nH]c(O)c1/C=C1\C=Nc2ccccc21 | 35.1 µM | > 100 µM | 18.5 µM | 7.91 µM | 27.2 µM | 8.88 µM | 3.34 µM | 46.9 µM |  | 10.6 µM | 4.07 µM | 2.52 µM | 8.26 µM |  | 11.4 µM | 24.8 µM | 11.7 µM | 2.65 µM | 1.64 µM | 8.04 µM
COCOC1CCCC[C@@]1(OCCOCCO[C@@]1(c2ccccc2)CCCC[C@H]1OCOC)c1ccccc1 (stereo partly drawn) | > 100 µM | > 100 µM | > 100 µM | > 100 µM |  | > 100 µM | > 100 µM | > 100 µM | > 100 µM |  |  |  |  |  |  | > 100 µM |  |  |  | 
